Legend:
P. acnes [1] = conditions: 0,2 % 1,2-Decandiol alone or combined with 1 % Milchsäure, from EP 1598064 A1; cited from earlier work
P.acnes = assay: Suspension test: decline of P. acnes in the formulations after 1 h, 6 h and 24 h (colony count); assay type: cell-based, Propionibacterium acnes; conditions: for antimikrobielle Wirksamkeit gegen P.acnes: result in words, suspension test, formulations as composed
Protocol: Die antimikrobielle Wirksamkeit der erfindungsgemäßen Kombinationen gegen P. acnes wurde zum Vergleich mit verschiedenen Formulierungen untersucht. Dazu wurde in einem Suspensionstest der Rückgang der P.acnes nach 1 h, 6h und 24h beobachtet. Dazu wurden wenige Einzelkolonien einer P.acnes - Kultur in 10mL anaerobem Medium im Impedanzgerät mit dem Programm PR37NT herangezogen. Nach der Wachstumsphase von ca. 18 Stunden wird zur Kontrolle der Keimzahl die OD gemessen, die etwa zwischen 0,3 - 0,5 liegen sollte. Für den Versuch wurden 100µL der gewachsene Kolonie und 100µL autoklaviertes Wasser zu 800mg der zu prüfenden Formulierung gegeben. Die Tests wurden manuell durchgeführt. Zwischen den Abnahmen werden die Proben unter anaeroben Bedingungen (Topf) gelagert. Die Proben wurden jeweils zum Zeitpunkt 1h, 6h und 24h genommen und auf den entsprechenden Agarplatten ausplattiert. Die Platten werden unter anaeroben Bedingungen (Topf) bei 37°C bebrütet. Nach 5 Tagen wurde die Keimzahl bestimmt. Die Abbildungen 1 und 2 zeigen die ermittelten Ergebnisse. Darin umfassen die Formulierung wie folgt • A: 0,5 Gew.% Licochalcone A • B: 0,5 Gew.% Licochalcone A und 0,3 Gew.% 1,2 Decandiol • C: 0,3 Gew.% 1,2 Decandiol • D: 0,5 Gew.% Licochalcone A, 0,3 Gew.% 1,2 Decandiol und 2 Gew.% Carnitin • E: 0,5 Gew.% Licochalcone A, 0,2 Gew.% 1,2 Decandiol und 2 Gew.% Carnitin • F: 0,5 Gew.% Licochalcone A, 0,1 Gew.% 1,2 Decandiol und 2 Gew.% Carnitin • G: 0,3 Gew.%-1,2 Decandiol und 2 Gew.% Carnitin • H: 0,2 Gew.% 1,2 Decandiol und 2 Gew.% Carnitin • I: 0,1 Gew.% 1,2 Decandiol und 2 Gew.% Carnitin

P. acnes [2] = conditions: gegenüber P. acnes; cited from earlier work

## CCCCCCCCC(O)CO (stereo not shown) [1,2-Decandiol]
P. acnes [1]
  antibakterielle Wirkung im Suspensionstest: so gut wie keine antibakterielle Wirkung
P.acnes; 0,3% Decandiol allein
  Zellzahl reduziert um Faktor: 4158
P.acnes
  antimikrobielle Wirksamkeit gegen P.acnes: nur eine schwache antimikrobielle Wirksamkeit

## CC[C@H]1OC(=O)[C@H](C)[C@@H](O[C@H]2C[C@@](C)(OC)[C@@H](O)[C@H](C)O2)[C@H](C)[C@@H](O[C@@H]2O[C@H](C)C[C@H](N(C)C)[C@H]2O)[C@](C)(O)C[C@@H](C)C(=O)[C@H](C)[C@@H](O)[C@]1(C)O [Erythromycin]
P. acnes [2]
  MHK-Werte: < 1 pmm

## C=CC(C)(C)c1cc(/C=C/C(=O)c2ccc(O)cc2)c(OC)cc1O [Licochalcone A]
P.acnes; 0,5% Licochalcone A allein, nach 24h
  Reduktionsfaktor: 41
P.acnes
  antimikrobielle Wirksamkeit gegen P.acnes: keine antimikrobielle Wirksamkeit

## CN(C)[C@@H]1C(O)=C(C(N)=O)C(=O)[C@@]2(O)C(O)=C3C(=O)c4c(O)cccc4[C@@](C)(O)[C@H]3C[C@@H]12 [Tetracyclin]
P. acnes [2]
  MHK-Werte: < 1 pmm

Reference: patent publication EP2549976B1, “SKIN-FRIENDLY ACTIVE INGREDIENT COMBINATION TO COMBAT ACNE” (Beiersdorf AG, priority 2010, dated 2011)
